This note sets out measurements from patent US12318365B2, “Inhibition of dipeptide repeat proteins” (ALS Therapy Development Institute, priority 2019, dated 2025).

No end group written: not given here.

In data set [1] the test system is NSC-34 cells. Kind of data set: BrdU ELISA (proliferation) in NSC-34 cells. In kind it is cell-based, Mouse. To be noted: DRP 0.01-3 μM, 24 h; compared to DMSO-treated controls. The method, then: BrdU ELISA: The BrdU ELISA is an ELISA detecting cell proliferation activity. BrdU is a pyrimidine analog that, when inside the cell, can be incorporated instead of thymidine into newly synthesized strands of DNA. Just as is indicated by thymidine incorporation into DNA, BrdU incorporation into cell DNA indicates DNA synthesis activity, which is required for cell proliferation. In the BrdU ELISA, cells are treated with test compounds as well as BrdU reagent, and then incubated for 24 hours before testing. During testing, an anti-BrdU antibody detects the incorporation of BrdU into cell DNA that occurred over the 24-hour period, as a surrogate for cell proliferation activity. This anti-BrdU antibody is then labelled with a secondary antibody tagged with a colored substrate, which can be quantified spectrophotometrically. Greater absorbance readings correspond to more cell proliferation activity.
Cells were plated in culture medium in 2 96-well plates at a density of 3.7×10^4 cells per well, and incubated overnight at 37° C., 5% CO2.
The following conditions were plated in triplicate.
Plates were incubated for 24 h at 37° C., 5% CO2. Cells were tested and data were analyzed using the procedure detailed in BrdU ELISA kit instructions.
Cells were plated in culture medium in 2 96-well plates at a density of 5×10^4 cells per well, and incubated overnight at 37° C., 5% CO2. […] 10 μL of each concentration would be added to 100 μL base media in plate to achieve final concentrations of 3, 1, 0.3, 0.1, 0.03, and 0.01 μM DRP.
The following conditions were plated in triplicate. Samples were surrounded by border wells on the outside of the plate filled with sterile Phosphate-buffered saline to prevent evaporation of volume in experimental wells during incubation; • Culture medium only • Background (Cells only in culture medium, without BrdU reagent) • Untreated (Cells only in culture medium, with BrdU reagent) • DMSO Controls (Cells treated with BrdU reagent and the amount of DMSO that DRP-treated cells were exposed to at each concentration) • i. The DMSO controls tested were as follows, corresponding to DRP doses starting at the highest (3 μM to the lowest 0.01 μM), and were diluted in culture medium: • 1. 0.03% DMSO • 2. 0.01% DMSO • 3. 0.003% DMSO • 4. 0.001% DMSO • 5. 0.0003% DMSO • 6.
In general terms: Incorporation of labelled thymidine or its analogues reports DNA synthesis.

For data set [2], the system named is NSC-34 cells. Kind of data set: Caspase-3 assay (apoptotic activity) in NSC-34 cells. In kind it is cell-based. To be noted: DRP 0.01-3 μM, 24 h; compared to DMSO-treated controls. The text has this:
Caspase-3/CPP32 Assay: The caspase-3 assay is a fluorometric assay that measures apoptotic cell death. Apoptosis is a form of “programmed” cell death, in which a certain family of proteins inside the cell triggers a cascade of chemical reactions that result in the cell killing itself. One family of proteins involved in this process is the caspase protein family. Of the caspase proteins, caspase-2, 8, 9, and 10 are known as “initiators,” those that trigger the death cascade, and caspase-3, 6, and 7 are known as “executioners,” which carry out the actual killing of the cell. In a caspase-3 assay, cells treated with test compounds are lysed, and a substrate known as DEVD-AFC is added to the lysate. If active caspase-3 enzyme is present in the lysate, it will cleave AFC from the DEVD-AFC substrate, resulting in a fluorescent signal that can be quantified using a fluorescence microtiter plate reader. Thus, the apoptotic activity of cells treated with test compounds can be quantified. Greater fluorescence readings correspond to more apoptotic cell death.
Cells were plated in culture medium in 2 96-well plates at a density of 3.7×10^4 cells per well, and incubated overnight at 37° C., 5% CO2. The following day, immediately prior to addition of test compounds, existing culture medium was removed and replaced with staggered volumes of culture medium as in Example 1. A 10 mM stock of MS023 was thawed to room temperature and diluted as in Example 1. A 10 mM stock of GR15 (SEQ ID NO: 1) and a 10 mM stock of PR15 (SEQ ID NO: 2) were equilibrated to room temperature and diluted in warm culture medium to achieve a final concentration of 300 nM in wells.
The following conditions were plated in triplicate. Samples were surrounded by border wells on the outside of the plate filled with sterile Phosphate-buffered saline to prevent evaporation of volume in experimental wells during incubation; • Background (Culture medium only) • Untreated/“Cells Only” (Cells in culture medium) • DMSO Control (Cells treated only with the amount of DMSO that GR- and PR-treated cells were exposed to) • GR Only (Cells treated only with 300 nM GR15) (SEQ ID NO: 1) • Cells treated with […] GR15 (SEQ ID NO: 1) and one of the following doses of MS023: 60 μM, 30 μM, 10 μM, 3 μM, 1 μM. • PR Only (Cells treated only with 300 nM PR15) (SEQ ID NO: 2) • Cells treated with 300 nM PR15 (SEQ ID NO: 2) and one of the following doses of MS023: 60 μM, 30 μM, 10 μM, 3 μM, 1 μM. • Cells treated with only one of the following doses of MS023: 60 μM, 30 μM, 10 μM, 3 μM, 1 μM. • Positive controls (Cells treated with either 5 or 16 μM PAC-1 Caspase-3 activator)
Plates were incubated for 24 h at 37° C., 5% CO2. Cells were tested and data were analyzed using the procedure detailed in Caspase-3 assay kit instructions.
Cells were plated in culture medium in 2 96-well plates at a density of 3.7×10^4 cells per well, and incubated overnight at 37° C., 5% CO2. The following day, immediately prior to addition of test compounds, existing culture medium was removed and replaced with staggered volumes of culture medium as in Example 1. A 10 mM stock of MS023 was thawed to room temperature and diluted in warm culture medium to achieve final concentrations of 3, 1, 0.3, 0.1, 0.03, and 0.01 μM in plate. A 10 mM stock of GR15 (SEQ ID NO: 1) and a 10 mM stock of PR15 (SEQ ID NO: 2) were equilibrated to room temperature and diluted in warm culture medium to achieve a final concentration of 3 μM in wells.
The following conditions were plated in triplicate. […]

As to GPGPGPGPGPGPGPGPGPGPGPGPGPGPGP [GP15], in data set [1], the “effect of DRP on proliferation activity” value is given as “did not significantly impact proliferation activity”. In addition, the DRP-induced apoptotic activity entry in data set [2] was “producing less robust levels of apoptotic activity”.

For PAPAPAPAPAPAPAPAPAPAPAPAPAPAPA [PA15], the “effect of DRP on proliferation activity” value in data set [1] is reported as “did not significantly impact proliferation activity”. Moreover, the DRP-induced apoptotic activity result in data set [2] is reported as “producing less robust levels of apoptotic activity”.
